Data: patent US4818753A, “Synthesis and method of use for 2, 4 diaminoquinazoline” (SRI International, priority 1987, dated 1989)
Converted amounts (≈) assume the structure as drawn. “Also recorded” adds a separate entry of the source. Read-outs that look alike come from different tables or passages of the source.

Columns and labels:
Assay type in all cases: cell-based
[1] = system: Ca. albicans MY1029; experiment: Agar dilution assay; conditions: Candida albicans, MY1029, 48 h, read-out: Minimum inhibitory concentration
Description: (§1) For the agar dilution assay, the test panel consisted of 18 yeastlike and 3 Filamentus fungii. Four media were used. These were yeast nitrogen base dextrose (0.5% agar) (YNBDA); pH 5.5; YNBDA with pH adjusted to pH 7.5; and micrological agar (MA), pH 7.0; and Sabouraud dextrose agar, pH 5.7. The media was manufactured by Difco (Detroit, MI) and prepared according to the manufacturer's instructions.
(§2) The test compounds were solubilized in 10% aqueous DMSO; the control drug, Nystatin, was solublized in 10% aqueous DMF. The drugs were serially diluted twofold in sterile water to yield concentrations of 1.28 mg/ml to […]. One ml of diluted drug was added to 9 ml of cooled (50° C.) molten agar in plastic petri plates to yield final drug concentrations in the agar ranging from 128 to 0.063 ug/ml. Appropriate solvent and media control plates were prepared as well, and all plates stored in the dark at 4° C. overnight. The yeast cultures, maintained in yeast maltose (YM; Difco), were transferred to fresh YM medium and incubating overnight at 37° C. with shaking at 250 rpm. After incubation each culture was diluted in sterile saline to yield concentrations of 3×10^5 to 3×10^6 cfu/ml. Isolates of aspergillis and penicillium were made on potato dextrose agar slants, and spore suspensions were made following vigorous shaking with sterile glass beads. The spore preparation were used as inocula for these fungi.
(§3) Each prepared place was inoculated with the 21-member panel using a Denleigh multipoint inoculator (Sussex, England). The inoculator delivers approximately 1 ul to the agar surface, resulting in inoculation of from 3×10^2 to 3×10^3 cfu. The plates were incubated at 28° C. for 48 h, and the minimum inhibitory concentrations (MIC) of each drug were recorded as the lower concentration of the drug permitting no growth or growth of less than 3 cfu/spot.

[2] = system: Ca. pseudotropicalis MY1040; experiment: Agar dilution assay; conditions: Kluyveromyces marxianus, MY1040, 48 h, read-out: Minimum inhibitory concentration
Description: as §1, §2, §3

[3] = system: Torulopsis glabrata MY1059; experiment: Agar dilution assay; conditions: Nakaseomyces glabratus, MY1059, 48 h, read-out: Minimum inhibitory concentration
Description: as §1, §2, §3

[4] = system: Ca. albicans MY1013; experiment: Agar dilution assay; conditions: Candida albicans, MY1013, 48 h, read-out: Minimum inhibitory concentration
Description: as §1, §2, §3

[5] = system: A. flavus MF0383; experiment: Agar dilution assay; conditions: Aspergillus flavus, MF0383, 48 h, read-out: Minimum inhibitory concentration
Description: as §1, §2, §3

[6] = system: Ca. tropicalis MY1011; experiment: Agar dilution assay; conditions: Candida tropicalis, MY1011, 48 h, read-out: Minimum inhibitory concentration
Description: as §1, §2, §3

[7] = system: Ca. guilliermondii MY1019; experiment: Agar dilution assay; conditions: Meyerozyma guilliermondii, MY1019, 48 h, read-out: Minimum inhibitory concentration
Description: as §1, §2, §3

[8] = system: Penicillium italicum MF2819; experiment: Agar dilution assay; conditions: MF2819, 48 h
Description: as §1, §2, §3

[9] = system: Cryptococcus neoformans MY1051; experiment: Agar dilution assay; conditions: MY1051, 48 h
Description: as §1, §2, §3

[10] = system: Sac. cerevisiae MY1027; experiment: Agar dilution assay; conditions: Saccharomyces cerevisiae, MY1027, 48 h, read-out: Minimum inhibitory concentration
Description: as §1, §2, §3

[11] = system: Ca. albicans MY0992; experiment: Agar dilution assay; conditions: Candida albicans, MY0992, 48 h, read-out: Minimum inhibitory concentration
Description: as §1, §2, §3

[12] = system: Ca. parapsilosis MY1009; experiment: Agar dilution assay; conditions: MY1009, 48 h, read-out: Minimum inhibitory concentration
Description: as §1, §2, §3

[13] = system: Cr. neoformans MY1146; experiment: Agar dilution assay; conditions: Cryptococcus neoformans, MY1146, 48 h, read-out: Minimum inhibitory concentration
Description: as §1, §2, §3

[14] = system: Ca. parapsilosis MY1010; experiment: Agar dilution assay; conditions: Lodderomyces parapsilosis, MY1010, 48 h, read-out: Minimum inhibitory concentration
Description: as §1, §2, §3

[15] = system: Ca. tropicalis MY1012 (Nystatin resistant isolate); experiment: Agar dilution assay; conditions: Candida tropicalis, 48 h
Description: as §1, §2, §3

[16] = system: 18 yeastlike and 3 Filamentus fungii; experiment: Agar dilution assay, whole panel; conditions: for MIC: 48 h
Description: as §1, §2, §3

[17] = MA pH 7.0, read-out: Minimum inhibitory concentration
[18] = SDA pH 5.7, read-out: Minimum inhibitory concentration
[19] = YNBDA pH 5.5, read-out: Minimum inhibitory concentration
[20] = YNBDA pH 7.5, read-out: Minimum inhibitory concentration

## CCCCCCCCc1ccc2nc(N)nc(N)c2c1C [2,4-Diamino-5-methyl-6-n-octylquinazoline]
[1]; MA pH 7.0
  MIC: 32 µg/mL (≈ 112 µM)
[1]; SDA pH 5.7
  MIC: > 128 µg/mL
[1]; YNBDA pH 5.5
  MIC: > 128 µg/mL
[1]; YNBDA pH 7.5
  MIC: 32 µg/mL (≈ 112 µM)
[2]; MA pH 7.0
  MIC: 4 µg/mL (≈ 14 µM)
[2]; SDA pH 5.7
  MIC: 128 µg/mL (≈ 447 µM)
[2]; YNBDA pH 5.5
  MIC: 128 µg/mL (≈ 447 µM)
[2]; YNBDA pH 7.5
  MIC: 4 µg/mL (≈ 14 µM)
[3]; MA pH 7.0
  MIC: 16 µg/mL (≈ 55.9 µM)
[3]; SDA pH 5.7
  MIC: > 128 µg/mL
[3]; YNBDA pH 5.5
  MIC: > 128 µg/mL
[3]; YNBDA pH 7.5
  MIC: 8 µg/mL (≈ 27.9 µM)
[4]; MA pH 7.0
  MIC: 16 µg/mL (≈ 55.9 µM)
[4]; SDA pH 5.7
  MIC: 128 µg/mL (≈ 447 µM)
[4]; YNBDA pH 5.5
  MIC: > 128 µg/mL
[4]; YNBDA pH 7.5
  MIC: 16 µg/mL (≈ 55.9 µM)
[5]; MA pH 7.0
  MIC: 64 µg/mL (≈ 223 µM)
[5]; SDA pH 5.7
  MIC: > 128 µg/mL
[5]; YNBDA pH 5.5
  MIC: > 128 µg/mL
[5]; YNBDA pH 7.5
  MIC: 16 µg/mL (≈ 55.9 µM)
[6]; MA pH 7.0
  MIC: 16 µg/mL (≈ 55.9 µM)
[6]; SDA pH 5.7
  MIC: 128 µg/mL (≈ 447 µM)
[6]; YNBDA pH 5.5
  MIC: > 128 µg/mL
[6]; YNBDA pH 7.5
  MIC: 16 µg/mL (≈ 55.9 µM)
[7]; MA pH 7.0
  MIC: 16 µg/mL (≈ 55.9 µM)
[7]; SDA pH 5.7
  MIC: > 128 µg/mL
[7]; YNBDA pH 5.5
  MIC: > 128 µg/mL
[7]; YNBDA pH 7.5
  MIC: 16 µg/mL (≈ 55.9 µM)
[8]; [17]
  MIC: 4 µg/mL (≈ 14 µM)
[8]; [18]
  MIC: 64 µg/mL (≈ 223 µM)
[8]; [19]
  MIC: 128 µg/mL (≈ 447 µM)
[8]; [20]
  MIC: 8 µg/mL (≈ 27.9 µM)
[9]; [17]
  MIC: 4 µg/mL (≈ 14 µM)
[9]; [18]
  MIC: 16 µg/mL (≈ 55.9 µM)
[9]; [19]
  MIC: 128 µg/mL (≈ 447 µM)
[9]; [20]
  MIC: 8 µg/mL (≈ 27.9 µM)
[10]; MA pH 7.0
  MIC: 4 µg/mL (≈ 14 µM)
[10]; SDA pH 5.7
  MIC: 128 µg/mL (≈ 447 µM)
[10]; YNBDA pH 5.5
  MIC: > 128 µg/mL
[10]; YNBDA pH 7.5
  MIC: 4 µg/mL (≈ 14 µM)
[11]; MA pH 7.0
  MIC: 16 µg/mL (≈ 55.9 µM)
[11]; SDA pH 5.7
  MIC: > 128 µg/mL
[11]; YNBDA pH 5.5
  MIC: > 128 µg/mL
[11]; YNBDA pH 7.5
  MIC: 16 µg/mL (≈ 55.9 µM)
[12]; MA pH 7.0
  MIC: 8 µg/mL (≈ 27.9 µM)
[12]; SDA pH 5.7
  MIC: > 128 µg/mL
[12]; YNBDA pH 5.5
  MIC: > 128 µg/mL
[12]; YNBDA pH 7.5
  MIC: 16 µg/mL (≈ 55.9 µM)
[13]; MA pH 7.0
  MIC: 4 µg/mL (≈ 14 µM)
[13]; SDA pH 5.7
  MIC: 16 µg/mL (≈ 55.9 µM)
[13]; YNBDA pH 5.5
  MIC: 128 µg/mL (≈ 447 µM)
[13]; YNBDA pH 7.5
  MIC: 8 µg/mL (≈ 27.9 µM)
[14]; MA pH 7.0
  MIC: 4 µg/mL (≈ 14 µM)
[14]; SDA pH 5.7
  MIC: > 128 µg/mL
[14]; YNBDA pH 5.5
  MIC: > 128 µg/mL
[14]; YNBDA pH 7.5
  MIC: 8 µg/mL (≈ 27.9 µM)
[15]; pH 5.5, read-out: Minimum inhibitory concentration
  MIC: 4 µg/mL (≈ 14 µM)
[15]; pH 5.7, read-out: Minimum inhibitory concentration
  MIC: 2 µg/mL (≈ 6.98 µM)
[15]; pH 7, read-out: Minimum inhibitory concentration
  MIC: 2 µg/mL (≈ 6.98 µM)
[15]; pH 7.5, read-out: Minimum inhibitory concentration
  MIC: 4 µg/mL (≈ 14 µM)
[16]; pH 5.7
  MIC: > 128 µg/mL
[16]; Candida tropicalis, pH 5.5
  MIC: ≥ 128 µg/mL
[16]; Table 3 panel
  antifungal activity in words: inhibitory for a large variety of yeast and Filamentus fungii; also recorded: extremely toxic with regard to a wide variety of fungi
